Results reported in PMC7835349 (Communications Biology, 2021).
Where “and” joins values, the source holds several entries; their conditions need not be identical. Equal values may be shown once. Read-outs that look alike come from different tables or passages of the source.

What was measured:
[1] = Plasma pharmacokinetics after IV bolus in C.B-17 SCID mouse; assay type: in vivo; settings: for concentration at 0.05 h / concentration at 0.5 h / concentration at 1 h / concentration at 2 h / concentration at 4 h / concentration at 6 h / concentration at 8 h / Concentration AZD4320 in Plasma, individual animals: 5 mg/kg, mouse IV
Experimental: Pharmacokinetic studies were carried out in the female C.B-17 SCID mouse. Either freshly prepared solutions of AZD4320 in 30% hydroxypropyl-β-cyclodextrin or drug-dendrimer conjugates in phosphate buffered saline were injected as a bolus into the tail vein at dosing volume of 5 ml/kg. Blood samples were collected at different time points post dose and analysed as below.
Blood samples were collected from the jugular vein by venepuncture into K2EDTA (as anticoagulant) tubes. Immediately following collection into the K2EDTA tube the samples were mixed gently and kept on crushed ice until centrifugation. Within 30 mins of blood collection, each sample was centrifuged (1500 g for 10 min at 4 °C) to generate plasma which was kept on wet ice at all times in polypropylene tubes. Duplicate 50 μL aliquots were transferred immediately after centrifugation into uniquely labelled polypropylene tubes (‘released’ AZD4320) containing equivalent amount (50 μL) of 0.2 M citric acid solution, inverted 10 times and then stored in a freezer set to maintain a temperature of −80 °C, until analysis.
The concentrations of ‘total’ AZD4320 were determined in plasma by overnight incubation with hydrazine followed by protein precipitation with acetonitrile and subsequent liquid/liquid extraction. Liquid chromatography with mass spectrometric detection (LC-MS/MS, details in Supplementary Table 5) was used to quantitate both ‘released’ and ‘total’ AZD4320.
Sample analyses were performed in batches containing study samples, calibration standards at 10 concentration levels, QC samples at three concentration levels in duplicate and blank samples. The analytical run acceptance criteria for calibration standards and QC samples was that at least 75% of back-calculated concentrations for calibration standards and at least 2/3 of the QC samples (at least 50% at each concentration level) should be within ±20% (±25% at LLOQ) from nominal value.

RS4;11 xenograft = test: RS4;11 mouse xenograft efficacy (tumour volume); assay type: in vivo, C.B-17 SCID mouse; design: key to tumour volume, individual animals: tumour volume in mm³, length × width²/0.52; settings: for tumour volume, individual animals: 10 mg/kg
Experimental: Female C.B.−17 SCID mice were purchased from Charles River Laboratories. Mice were 5–8 weeks old at the time of tumour implantation. All xenograft studies were conducted at our Association for the Assessment and Accreditation of Laboratory Animal Care accredited facility in Waltham, MA in accordance with ethical regulations described in the guidelines established by the internal Institutional Animal Care and Use Committee. The dendrimer conjugates were formulated in citrate/phosphate buffer pH 5.0, diluted 1:10 with 5% glucose containing 1% w/v Kolliphor HS15, and AZD4320 was formulated in 30% HP-β-CD and dosed as a weekly intravenous (IV) administration at a volume of 5 ml/kg at the indicated doses. Five million RS4;11, five million SUDHL-4 or five million OCI-LY-10 cells were injected subcutaneously in the right flank of mice in a volume of 0.1 ml. Tumour volumes (measured by caliper), animal body weight, and tumor condition were recorded twice weekly for the duration of the study. The tumour volume was calculated (taking length to be the longest diameter across the tumour and width to be the corresponding perpendicular diameter) using the formula: length (mm) x width (mm)^2/0.52. For efficacy studies, mice were randomized based on tumour volumes using stratified sampling and enrolled into control and treatment groups. Tumour growth inhibition from the start of treatment was quantified by measuring the difference in tumour volume between control and treated groups. Survival analysis was evaluated using Mantel-Cox test. Tumours were also taken for bioanalysis.

Question: What does the source list for `CN(CCO)CCC(CSc1ccccc1)Nc1ccc(S(=O)(=O)NC(=O)c2ccc(N3CCC(C(O)c4ccccc4-c4ccc(Cl)cc4)CC3)cc2)cc1S(=O)(=O)C(F)(F)F` (centres unmarked) [AZD4320]?
Answer: plasma concentration relative to initial concentration ([1]; bolus IV, C.B-17 SCID mice, within 10 min): less than 20%; concentration at 0.05 h ([1]; female, C.B-17 SCID, mouse, plasma, intravenous, dosed at 5 mg/kg, 0.05 hr, read-out: Concentration AZD4320 in Plasma, Dose Adjusted to 10 mg/kg): 30600 ng/mL; concentration at 0.5 h ([1]; female, C.B-17 SCID, mouse, plasma, intravenous, dosed at 5 mg/kg, 0.5 hr, read-out: Concentration AZD4320 in Plasma, Dose Adjusted to 10 mg/kg): 1950 ng/mL; concentration at 1 h ([1]; female, C.B-17 SCID, mouse, plasma, intravenous, dosed at 5 mg/kg, 1 hr, read-out: Concentration AZD4320 in Plasma, Dose Adjusted to 10 mg/kg): 870 ng/mL; concentration at 2 h ([1]; female, C.B-17 SCID, mouse, plasma, intravenous, dosed at 5 mg/kg, 2 hr, read-out: Concentration AZD4320 in Plasma, Dose Adjusted to 10 mg/kg): 150 ng/mL; concentration at 4 h ([1]; female, C.B-17 SCID, mouse, plasma, intravenous, dosed at 5 mg/kg, 4 hr, read-out: Concentration AZD4320 in Plasma, Dose Adjusted to 10 mg/kg): 170 ng/mL; concentration at 6 h ([1]; female, C.B-17 SCID, mouse, plasma, intravenous, dosed at 5 mg/kg, 6 hr, read-out: Concentration AZD4320 in Plasma, Dose Adjusted to 10 mg/kg): 120 ng/mL; concentration at 8 h ([1]; female, C.B-17 SCID, mouse, plasma, intravenous, dosed at 5 mg/kg, 8 hr, read-out: Concentration AZD4320 in Plasma, Dose Adjusted to 10 mg/kg): 80 ng/mL; concentration at 0.05 h ([1]; female, C.B-17 SCID, mouse, plasma, iv, AZD4320 dosed at 5 mg/kg, 0.05 hr, read-out: Concentration AZD4320 in Plasma, Mean): 15300 ng/mL; concentration at 0.05 h ([1]; female, C.B-17 SCID, mouse, plasma, iv, AZD4320 dosed at 5 mg/kg, 0.05 hr, read-out: Concentration AZD4320 in Plasma, individual animals): 13900 ng/mL; concentration at 0.5 h ([1]; female, C.B-17 SCID, mouse, plasma, iv, AZD4320 dosed at 5 mg/kg, 0.5 hr, read-out: Concentration AZD4320 in Plasma, Mean): 977 ng/mL; concentration at 0.5 h ([1]; female, C.B-17 SCID, mouse, plasma, iv, AZD4320 dosed at 5 mg/kg, 0.5 hr, read-out: Concentration AZD4320 in Plasma, individual animals): 1080 ng/mL; concentration at 1 h ([1]; female, C.B-17 SCID, mouse, plasma, iv, AZD4320 dosed at 5 mg/kg, 1 hr, read-out: Concentration AZD4320 in Plasma, Mean): 436 ng/mL; concentration at 1 h ([1]; female, C.B-17 SCID, mouse, plasma, iv, AZD4320 dosed at 5 mg/kg, 1 hr, read-out: Concentration AZD4320 in Plasma, individual animals): 579 ng/mL; concentration at 2 h ([1]; female, C.B-17 SCID, mouse, plasma, iv, AZD4320 dosed at 5 mg/kg, 2 hr, read-out: Concentration AZD4320 in Plasma, Mean): 75.3 ng/mL; concentration at 2 h ([1]; female, C.B-17 SCID, mouse, plasma, iv, AZD4320 dosed at 5 mg/kg, 2 hr, read-out: Concentration AZD4320 in Plasma, individual animals): 79.7 ng/mL; concentration at 4 h ([1]; female, C.B-17 SCID, mouse, plasma, iv, AZD4320 dosed at 5 mg/kg, 4 hr, read-out: Concentration AZD4320 in Plasma, Mean): 86.3 ng/mL; concentration at 6 h ([1]; female, C.B-17 SCID, mouse, plasma, iv, AZD4320 dosed at 5 mg/kg, 6 hr, read-out: Concentration AZD4320 in Plasma, Mean): 60.1 ng/mL; concentration at 8 h ([1]; female, C.B-17 SCID, mouse, plasma, iv, AZD4320 dosed at 5 mg/kg, 8 hr, read-out: Concentration AZD4320 in Plasma, Mean): 41.3 ng/mL; clearance ([1]; female, C.B-17 SCID, plasma, mouse, 3-compartment model, conventional IV dose, read-out: Total Plasma Clearance CL (converted)): 0.493 mL/min; Concentration AZD4320 in Plasma, individual animals ([1]; AZD4320 dosed at 5 mg/kg, 0.05 hr): 16000 ng/mL; Concentration AZD4320 in Plasma, individual animals ([1]; AZD4320 dosed at 5 mg/kg, 0.5 hr): 1030 ng/mL and 822 ng/mL; Concentration AZD4320 in Plasma, individual animals ([1]; AZD4320 dosed at 5 mg/kg, 1 hr): 402 ng/mL and 328 ng/mL; Concentration AZD4320 in Plasma, individual animals ([1]; AZD4320 dosed at 5 mg/kg, 2 hr): 67.8 ng/mL and 78.4 ng/mL; Concentration AZD4320 in Plasma, individual animals ([1]; AZD4320 dosed at 5 mg/kg, 4 hr): 131 ng/mL and 54.4 ng/mL and 73.6 ng/mL; Concentration AZD4320 in Plasma, individual animals ([1]; AZD4320 dosed at 5 mg/kg, 6 hr): 92.1 ng/mL and 39.5 ng/mL and 48.8 ng/mL; Concentration AZD4320 in Plasma, individual animals ([1]; AZD4320 dosed at 5 mg/kg, 8 hr): 52.9 ng/mL and 53.4 ng/mL and 17.6 ng/mL; Compartmental Micro Constant k12 ([1]; mouse, 3-compartment model): 2.31 h⁻¹; Compartmental Micro Constant k13 ([1]; mouse, 3-compartment model): 3.92 h⁻¹; Compartmental Micro Constant k21 ([1]; mouse, 3-compartment model): 0.108 h⁻¹; Compartmental Micro Constant k31 ([1]; mouse, 3-compartment model): 4.36 h⁻¹; Central Compartment Volume Vc ([1]; mouse, 3-compartment model, conventional IV dose): 0.0042 L; tumour volume, individual animals (RS4;11 xenograft; Day 38, in mm³ (unit assumed)): 591 and 667 and 633 and 678; tumour volume, individual animals (RS4;11 xenograft; Day 41, in mm³ (unit assumed)): 365 and 322 and 378 and 334; tumour volume, individual animals (RS4;11 xenograft; Day 45, in mm³ (unit assumed)): 218 and 235 and 397 and 259; tumour volume, individual animals (RS4;11 xenograft; Day 48): 0 (2×) and 160 and 156; tumour volume, individual animals (RS4;11 xenograft; Day 52): 0 (3×) and 144; tumour volume, individual animals (RS4;11 xenograft; Day 55): 0 (3×) and 87; tumour volume, individual animals (RS4;11 xenograft; Day 59, in mm³ (unit assumed)): 144 and 155 and 220 and 196; tumour volume, individual animals (RS4;11 xenograft; Day 63, in mm³ (unit assumed)): 388 and 353 and 396 and 530; tumour volume, individual animals (RS4;11 xenograft; Day 66, in mm³ (unit assumed)): 257 and 221 and 387 and 438; tumour volume, individual animals (RS4;11 xenograft; Day 69, in mm³ (unit assumed)): 351 and 316 and 514 and 702; tumour volume, individual animals (RS4;11 xenograft; Day 73, in mm³ (unit assumed)): 1003 and 568 and 1069 and 1242; anti-tumour activity (RS4;11 xenograft; RS4;11 tumours, IV, 10 mg/kg or equivalent): complete regression
